Measurements from PMC4738272 (Scientific Reports, 2016).
Where “and” joins values, the source holds several entries; their conditions need not be identical. Equal entries are not always repeated. Entries after “also recorded” stand apart in the source; their conditions may differ.

Assays:
HepG2/C3A [1] = assay: MTT viability of liver module in 4-organ system; assay type: cell-based, human; conditions: 4-organ co-culture under flow, serum-free medium, 48 h drug treatment, day 7, vs control, DOX 5 μM, ATR 100 μM, VPA 2 mM, APAP 5 mM, AMAP 5 mM
Source text: (§1) The four organ in vitro systems were assembled, on day 0, by placing the corresponding surfaces cell side up in a specific chamber of the housing (liver coverslip into chamber 1, cardiac coverslips and cantilevers into chambers 2 and 4, muscle coverslips into chamber 5, and neuron coverslips into chamber 3 and they were then topped with the serum-free co-culture medium (1X Neurobasal Medium, 1X B27, 1X AB/AM, 1X Glutamax (all from Life Technologies)) before locking the system. Right after assembling, the medium was completely replaced with 4 mL of the co-culture defined serum-free medium and the systems placed on a rocking platform inside an incubator. Platforms were checked every day by inspecting for expected cell morphology inside the system and by replacing medium (1.2 mL total volume) from the two reservoirs (30% of the total volume was replaced) with fresh medium. Drug incubation was initiated on day 5 of the co-culture by addition of the drug through the reservoir closer to the liver chamber (no. 1), allowing a first contact of the drug with the liver. 20 μL of the drug stock solution (or vehicle) to achieve a working concentration in 4 mL of total volume in the platform was utilized. On day 6, after 24 hours of drug incubation, 6 μL of the drug stock solution (or vehicle) was added to the fresh medium exchange volume (1.2 mL). After 48 hour of drug incubation, on day 7, systems were disassembled to test organ functionality that same day. For mono-culture conditions, surfaces remained in a 12-well plated with 1 mL of the co-culture defined serum-free medium maintained by daily replacement of half volume.
(§2) Seven days after the initiation of the co-culture, viability of each organ chamber, except for neurons, was evaluated through an MTT assay. […] Cell viability was measured at 570 nm in a Synergy HT plate reader and KC4 software. The results were expressed as the percentage of cell survival relative to the control (untreated or incubated with vehicle). The neuronal fraction viability was evaluated through morphological analysis throughout the co-culture experiment as the final coverslips were used for patch-clamp electrophysiology. Phase images (10X) where obtained every day of the co-culture. Neuronal viability was evaluated by cell morphology integrity and by cell count from day 1 to day 14.

HepG2/C3A [2] = assay: Urea quantification, liver fraction of 4-organ system; assay type: cell-based, human; conditions: 4-organ co-culture under flow, 48 h drug treatment, vs control
HepG2/C3A [3] = assay: Human Serum Albumin quantification (ELISA), liver fraction of 4-organ system; assay type: cell-based; conditions: 4-organ co-culture under flow, 48 h drug treatment, vs control, DOX 5 μM, ATR 100 μM, VPA 2 mM, APAP 5 mM, AMAP 5 mM
Experimental: Human Serum Albumin (HSA) production from the liver fraction was tracked throughout the co-culture, by measuring the HSA concentration in the supernatant of the culture as it represents liver protein anabolism. Samples were collected from the exchanged medium (1.2 mL) and stored at −20 °C until analysis. One freeze-thaw cycle occurred before samples were analyzed following manufacturers’ instructions provided in the ELISA Starter Accessory Kit (Bethyl Laboratories Inc, Cat #: E101). Samples were diluted as necessary in sample conjugate/diluent buffer to ensure readings measured within the range of the standard curve. The standard curve was prepared by serial dilutions of human reference serum in sample conjugate/diluent buffer (0–1600 ng/ml).
Final HSA concentrations were calculated in an excel file by first removing the average OD reading measured for blanks from average sample and standard OD readings. Concentrations of standard dilutions were plotted against average OD values measured in XY scatter plots. A standard curve was created by adding an order of 2 polynomial trendline to XY scatter plots and selecting the option to display the equation of the trendline, as well as the R^2 value, on each scatter plot (for ease of analysis HSA sigmoidal curves were split into 3 standard curves with HSA concentration ranges of 0–200 ng/ml, 200–800 ng/ml and […]). Quadratic equations were rearranged to make X (sample HSA concentration) the unknown variant. Y values (OD values) and a/b/c constants generated from trendline equations were inputted into rearranged quadratic equations per assay. HSA concentrations calculated were corrected accordingly for any differences in culture final volumes, sample dilutions during assays and cells number.

[4] = system: iPSc differentiated Cardiomyocytes; assay: Cardiac beating frequency from video recordings; assay type: cell-based, human; conditions: 4-organ co-culture under flow, 48 h drug treatment, day 7, vs control; for Cardiomyocyte beating rate (beat frequency), decrease: DOX 5 μM, AMAP 5 mM; for Cardiomyocyte beating rate (beat frequency), increase: ATR 100 μM, VPA 2 mM, APAP 5 mM
Experimental: Seven or fourteen days after the co-culture, cardiac beating frequency was quantified from video recordings of three different areas of each of the cMEA surfaces, where the cardiomyocytes culture where located. Surfaces were located in a 37 °C bath platform containing co-culture medium with 50 mM HEPES on the stage of a Zeiss Axioscope 2FS upright microscope. Beats were counted in a period of 10 s, and the average number of 3 values was obtained. Drug effect was plotted as percentage of change compared to the control conditions.

Human Skeletal Myofibers [5] = assay: Myotube stimulated contraction (binary: contracting or not); assay type: cell-based; conditions: 4-organ co-culture under flow, 48 h drug treatment, day 7, broad-field electrical stimulation, DOX 5 μM, ATR 100 μM, VPA 2 mM, APAP 5 mM, AMAP 5 mM
Experimental: Myotube contraction in coverslips was evaluated after the co-culture was finalized. Individual surfaces were evaluated as previously reported in the group. Drugs effects were quantify in a binary code mode, cells were or were not contracting.

neurons [6] = assay: Neuron electrophysiology recording (patch clamp); assay type: cell-based, human; conditions: 4-organ co-culture under flow, 48 h drug treatment, day 7, vs control, DOX 5 μM, ATR 100 μM, APAP 5 mM, AMAP 5 mM; for Neuronal electrophysiology, overall effect: VPA 2 mM
Source text: Electrophysiological properties of neuron cultures where recorded on the last day of co-culture following a previously described method. Values of firing, repetitive firing, spontaneous firing, inward sodium current, outward potassium current, action potential peak voltage and the resting membrane potential, characterized the mature functionality of neurons in the in vitro system. Drug alterations of the neuronal electrophysiology are discussed in this manuscript.

Liver = system: Liver; parameters: method as in Literature; conditions: general toxic effects reported in the literature; ref Literature; cited from earlier work
Muscle = system: Muscle; parameters: method as in Literature; conditions: general toxic effects reported in the literature; ref Literature; cited from earlier work
Neurons [7] = system: Neurons; parameters: method as in Literature; conditions: general toxic effects reported in the literature; ref Literature; cited from earlier work
Cardiomyocytes = system: Cardiomyocytes; parameters: method as in Literature; conditions: general toxic effects reported in the literature; ref Literature; cited from earlier work
[8] = system: iPSc differentiated Cardiomyocytes; assay: MTT viability of cardiac module in 4-organ system; conditions: 4-organ co-culture under flow, serum-free medium, 48 h drug treatment, day 7, vs control, DOX 5 μM, ATR 100 μM, VPA 2 mM, APAP 5 mM, AMAP 5 mM
Source text: as §1, §2

Human Skeletal Myofibers [9] = assay: MTT viability of skeletal muscle module in 4-organ system; conditions: 4-organ co-culture under flow, serum-free medium, 48 h drug treatment, day 7, vs control, DOX 5 μM, ATR 100 μM, VPA 2 mM, APAP 5 mM, AMAP 5 mM
Source text: as §1, §2

neurons [10] = assay: Neuronal viability by morphological analysis and cell count in 4-organ system; conditions: 4-organ co-culture under flow, serum-free medium, 48 h drug treatment, day 7, vs control, DOX 5 μM, ATR 100 μM, VPA 2 mM, APAP 5 mM, AMAP 5 mM
Source text: as §1, §2

[11] = therapeutic dosages; cited from earlier work
[12] = cited from earlier work

CC(=O)Nc1cccc(O)c1 [N-Acetyl-m-aminophenol]
Liver (hepatocyte) cell viability, loss (HepG2/C3A [1]): Toxicity not observed | Liver (hepatocyte) cell viability, loss (HepG2/C3A [1]; listed as AMAP): No significant effects | Urea production, increase (HepG2/C3A [2]; DOX 5 μM, ATR 100 μM, APAP 5 mM, AMAP 5 mM): 138 ± 19% | HSA (albumin) production, increase (HepG2/C3A [3]): 23 ± 4% | Cardiomyocyte beating rate (beat frequency), decrease [4]: 25 ± 4% decrease in beating rate | Cardiomyocyte beating rate (beat frequency), decrease ([4]; listed as AMAP): 25 ± 4% and 30% | Skeletal muscle loss of contractile ability (share of cultures in which contraction ceased) (Human Skeletal Myofibers [5]): No loss in contractile ability | Skeletal muscle loss of contractile ability (share of cultures in which contraction ceased) (Human Skeletal Myofibers [5]; listed as AMAP): not affected | Neuronal repetitive and spontaneous firing ability (neurons [6]): conserved | Neuronal electrophysiology, overall effect (neurons [6]): Normal electrophysiology | Neuronal electrophysiology, overall effect (neurons [6]; listed as AMAP): no significant changes compared to the control | Drug effects on cell functionality, Liver, Literature (Liver): Toxicity not reported | Drug effects on cell viability, Liver, Literature (Liver): Toxicity not reported | Drug effects on cell functionality, Muscle, Literature (Muscle): Toxicity not reported | Drug effects on cell viability, Muscle, Literature (Muscle): Toxicity not reported | Drug effects on cell functionality, Neurons, Literature (Neurons [7]): Toxicity not reported | Drug effects on cell viability, Neurons, Literature (Neurons [7]): Toxicity not reported | Drug effects on cell functionality, Cardiomyocytes, Literature (Cardiomyocytes): Toxicity not reported | Drug effects on cell viability, Cardiomyocytes, Literature (Cardiomyocytes): Toxicity not reported | Cardiomyocyte viability, loss [8]: 28 ± 6% loss | Cardiomyocyte viability, loss ([8]; listed as AMAP): 28 ± 6% and 30% | Skeletal muscle viability, loss (Human Skeletal Myofibers [9]): Toxicity not observed | Skeletal muscle viability, loss (Human Skeletal Myofibers [9]; listed as AMAP): not affected | Neuronal cell viability, loss (cell loss by morphology/cell count) (neurons [10]): Toxicity not observed, some increase in cell numbers but not significant | Neuronal cell viability, loss (cell loss by morphology/cell count) (neurons [10]; listed as AMAP): No significant effects; also recorded: some increase in cell numbers; also recorded: no change in viability

CCCC(CCC)C(=O)O [Valproic Acid, Valproic acid]
Urea production, decrease (HepG2/C3A [2]; VPA 2 mM): 13 ± 2% | HSA (albumin) production, increase (HepG2/C3A [3]): not affected | HSA (albumin) production, increase (HepG2/C3A [3]; listed as VPA): no changes | Cardiomyocyte beating rate (beat frequency), increase [4]: 38 ± 18% increase in beating frequency | Cardiomyocyte beating rate (beat frequency), increase ([4]; listed as VPA): 38 ± 18% | Neuronal electrophysiology, overall effect (neurons [6]): Normal electrophysiology | Neuronal electrophysiology, overall effect (neurons [6]; listed as VPA): no changes compared to the control; also recorded: maintained the electrophysiological parameters | Drug effects on cell functionality, Muscle, Literature (Muscle): Toxicity not reported | Drug effects on cell viability, Muscle, Literature (Muscle): Toxicity not reported | Drug effects on cell functionality, Neurons, Literature (Neurons [7]): Toxicity not reported | Drug effects on cell viability, Neurons, Literature (Neurons [7]): Toxicity not reported | Drug effects on cell functionality, Cardiomyocytes, Literature (Cardiomyocytes): Cardio-protective effect | Drug effects on cell viability, Cardiomyocytes, Literature (Cardiomyocytes): Cardio-protective effect | Concentration detected in patient plasma [11]: 300 to 700 µM | Concentration known to be cytotoxic in vitro [12]: around 2 mM
